Laboratory results taken from patent publication US10662156B2, “Guanidine derivative and medical use thereof” (Toray Industries, Inc., priority 2016, dated 2020).
pIC50: −log10 of the molar value. Where a name gives a salt, the structure may show the parent alone.

Molecular target: recombinant GST fusion MALT1 (human MALT1) (Homo sapiens (Human), UniProt Q9UDY8)
Experiment: Evaluation of inhibition of protease activity of MALT1 (cleavage of fluorescent peptide substrate Ac-LRSR-AMC)
Type: biochemical
Details: substrate Ac-LRSR-AMC 20 μmol/L, 30° C. for 80 minutes
Procedure: The guanidine derivative (I) or the pharmacologically acceptable salt thereof was evaluated for its inhibition of the protease activity of MALT1 in an in vitro experimental system in accordance with the method described in the literature (Cancer Cell, 2012, Vol. 22, p. 825-837). Specifically, the evaluation was conducted by measuring the degree of reduction in fluorescence value by the compound relative to elevation in fluorescence value resulting from the cleavage of a fluorescently labeled artificial peptide substrate by recombinant MALT1.
A) Preparation of Recombinant GST Fusion MALT1:
Full-length cDNA of human MALT1 gene (GenBank accession No: AB026118.1) amplified by PCR was inserted in flame to a SalI site located downstream of GST gene in a pGEX6P3 vector (GE Healthcare Japan Corp.) to prepare a vector (hereinafter, referred to as a pGEX6P3-MALT1 vector). Subsequently, E. coli for protein expression (BL21-RIL-codon plus-DE3, Agilent Technologies, Inc.) was transformed with the pGEX6P3-MALT1 vector and then analyzed by ampicillin resistance screening and colony PCR to obtain an E. coli strain expressing recombinant GST fusion MALT1. Protein expression was induced with isopropyl-(3-thiogalactopyranoside. After the expression induction, E. coli precipitates were recovered by centrifugation from the E. coli culture solution, and the E. coli precipitates were homogenized and then centrifuged to obtain a supernatant. The supernatant was purified using GSTrap FF column (GE Healthcare Japan Corp.) to obtain recombinant GST fusion MALT1.
B) Evaluation of Inhibition of Protease Activity of MALT1:
To 89 μL of an enzyme solution ([…] GST fusion MALT1, 50 mmol/L MES, 150 mmol/L NaCl, 10% sucrose, 0.1% CHAPS, 10 mmol/L dithiothreitol, and 1 mol/L tri-ammonium citrate) per specimen, 1 μL of a test compound (DMSO-diluted solution) of each concentration was added to prepare a mixed solution. The mixed solution was incubated at room temperature for 30 minutes, followed by the measurement of the fluorescence value of the mixed solution (fluorescence value of the first measurement) (Ex: 380 nm, Em: 460 nm; Envision (Perkin Elmer Inc.)). Next, 10 μL of 200 μmol/L substrate (Ac-LRSR-AMC, SM Biochemicals LLC) was added (final concentration: 20 μmol/L) to the mixed solution, and the mixture was reacted by incubation at 30° C. for 80 minutes, followed by the measurement of the fluorescence value of the reaction solution (fluorescence value of the second measurement) (Ex: 380 nm, Em: 460 nm; Envision (Perkin Elmer Inc.)). A “well nonsupplemented with the test compound (only DMSO was added), nonsupplemented with the enzyme and supplemented with the substrate”, and a “well nonsupplemented with the test compound (only DMSO was added), supplemented with the enzyme and supplemented with the substrate” were established.
The fluorescence value of the first measurement was defined as “F1”, and the fluorescence value of the second measurement was defined as “F2”. F2−F1 of the “well nonsupplemented with the test compound (only DMSO was added), nonsupplemented with the enzyme and supplemented with the substrate” was defined as “Fback”, F2−F1 of the “well nonsupplemented with the test compound (only DMSO was added), supplemented with the enzyme and supplemented with the substrate” was defined as “Fpositive”, and F2−F1 of the “well supplemented with the test compound, supplemented with the enzyme and supplemented with the substrate” was defined as “Fsample”. The rate of inhibition (%) of the protease activity of MALT1 by the test compound was calculated according to the following expression. Rate of inhibition (%)=100×(1−(Fsample−Fback)/(Fpositive−Fback))

Chain of recombinant GST fusion MALT1 (human MALT1) (Q9UDY8 whole entry, the tested form may be a part): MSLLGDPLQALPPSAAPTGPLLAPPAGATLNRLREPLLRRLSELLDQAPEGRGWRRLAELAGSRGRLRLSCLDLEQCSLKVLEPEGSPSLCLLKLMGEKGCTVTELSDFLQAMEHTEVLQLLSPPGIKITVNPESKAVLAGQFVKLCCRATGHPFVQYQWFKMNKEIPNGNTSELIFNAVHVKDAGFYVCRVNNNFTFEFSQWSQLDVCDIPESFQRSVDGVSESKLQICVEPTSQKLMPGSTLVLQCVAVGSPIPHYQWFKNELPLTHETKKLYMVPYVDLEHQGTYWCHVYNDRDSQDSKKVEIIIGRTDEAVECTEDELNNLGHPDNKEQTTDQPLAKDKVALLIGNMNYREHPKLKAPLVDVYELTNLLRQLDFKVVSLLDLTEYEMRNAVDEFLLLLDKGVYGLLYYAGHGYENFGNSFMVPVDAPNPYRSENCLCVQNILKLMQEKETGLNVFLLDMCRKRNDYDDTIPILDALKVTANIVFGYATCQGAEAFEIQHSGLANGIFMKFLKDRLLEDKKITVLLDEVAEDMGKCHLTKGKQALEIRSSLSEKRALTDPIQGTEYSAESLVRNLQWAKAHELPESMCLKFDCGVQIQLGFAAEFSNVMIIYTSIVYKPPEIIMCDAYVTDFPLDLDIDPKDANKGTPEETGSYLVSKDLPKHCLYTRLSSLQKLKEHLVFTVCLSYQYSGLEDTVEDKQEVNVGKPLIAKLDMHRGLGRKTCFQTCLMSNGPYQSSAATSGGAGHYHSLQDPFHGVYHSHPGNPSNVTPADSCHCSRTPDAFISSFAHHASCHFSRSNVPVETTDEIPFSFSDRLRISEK

Structure (SMILES) | pIC50
N/C(=N\S(=O)(=O)c1ccccc1)NCc1cnc(-c2ccc(C(F)(F)F)cc2)c(-c2ccc(Cl)cc2)c1 [Compound of Example 11, N-(amino(((5-(4-chlorophenyl)-6-(4-(trifluoromethyl)phenyl)pyridin-3-yl)methyl)amino)methylene)benzenesulfonamide] | 6.46
N/C(=N\S(=O)(=O)c1cccc(F)c1)NCc1cnc(-c2ccc(Cl)cc2)c(-c2ccc(Cl)cc2)c1 [Compound of Example 27, N-(amino(((5,6-bis(4-chlorophenyl)pyridin-3-yl)methyl)amino)methylene)-3-fluorobenzenesulfonamide] | 6.27
N/C(=N\C(=O)c1ccccc1)NCc1cnc(-c2ccc(Cl)cc2)c(-c2ccc(Cl)cc2)c1 [Compound of Example 34, N-(amino(((5,6-bis(4-chlorophenyl)pyridin-3-yl)methyl)amino)methylene)benzamide] | 6.09
N/C(=N\S(=O)(=O)c1ccsc1)NCc1cnc(-c2ccc(Cl)cc2)c(-c2ccc(Cl)cc2)c1 [Compound of Example 30, N-(amino(((5,6-bis(4-chlorophenyl)pyridin-3-yl)methyl)amino)methylene)thiophene-3-sulfonamide] | 6.94
N#Cc1cccc(S(=O)(=O)/N=C(\N)NCc2cnc(-c3ccc(Cl)cc3)c(-c3ccc(Cl)cc3)c2)c1 [Compound of Example 47, N-(amino(((5,6-bis(4-chlorophenyl)pyridin-3-yl)methyl)amino)methylene)-3-cyanobenzenesulfonamide] | 6.49
N/C(=N\S(=O)(=O)c1ccc(F)cc1)NCc1cnc(-c2ccc(Cl)cc2)c(-c2ccc(Cl)cc2)c1 [Compound of Example 28, N-(amino(((5,6-bis(4-chlorophenyl)pyridin-3-yl)methyl)amino)methylene)-4-fluorobenzenesulfonamide] | 6.45
CN/C(=N\S(=O)(=O)c1ccccc1)NCc1cnc(-c2ccc(Cl)cc2)c(-c2ccc(Cl)cc2)c1 [Compound of Example 40] | 7.43

Results, then the molecule that gave them:

pIC50 | Structure (SMILES)
6.98 | COc1nc(-c2ccc(Cl)cc2)c(-c2ccc(Cl)cc2)cc1CN/C(N)=N/S(=O)(=O)c1ccccc1 [Compound of Example 88, N-(amino(((5,6-bis(4-chlorophenyl)-2-methoxypyridin-3-yl)methyl)amino)methylene)benzenesulfonamide]
5.82 | N/C(=N\C(=O)c1ccc(Cl)cc1)NCc1cnc(-c2ccc(Cl)cc2)c(-c2ccc(Cl)cc2)c1 [Compound of Example 76, N-(amino(((5,6-bis(4-chlorophenyl)pyridin-3-yl)methyl)amino)methylene)-4-chlorobenzamide]
6.41 | N#Cc1ccc(S(=O)(=O)/N=C(\N)NCc2cnc(-c3ccc(Cl)cc3)c(-c3ccc(Cl)cc3)c2)cn1 [Compound of Example 52, N-(amino(((5,6-bis(4-chlorophenyl)pyridin-3-yl)methyl)amino)methylene)-6-cyanopyridine-3-sulfonamide]
6.13 | N/C(=N\C(=O)c1ccccn1)NCc1cnc(-c2ccc(Cl)cc2)c(-c2ccc(Cl)cc2)c1 [Compound of Example 82, N-(amino(((5,6-bis(4-chlorophenyl)pyridin-3-yl)methyl)amino)methylene)picolinamide]
6.39 | N/C(=N\C(=O)c1nccs1)NCc1cnc(-c2ccc(Cl)cc2)c(-c2ccc(Cl)cc2)c1 [Compound of Example 61, N-(amino(((5,6-bis(4-chlorophenyl)pyridin-3-yl)methyl)amino)methylene)thiazole-2-carboxamide]
5.79 | N/C(=N\S(=O)(=O)c1ccccc1)NCc1cnc(-c2ccc(Cl)cc2)c(-c2ccc(O)cc2)c1 [Compound of Example 94, N-(amino(((6-(4-chlorophenyl)-5-(4-hydroxyphenyl)pyridin-3-yl)methyl)amino)methylene)benzenesulfonamide Hydrochloride]
